Results taken from patent US9464049B2, “Indole-carboxamides” (Hoffmann-La Roche Inc., priority 2013, dated 2016).

Tests used:
[1] = system: human embryonic stem cell derived neural stem cells (NSCs); experiment: Neural stem cell proliferation assay (neurogenesis assay, ATP levels by CellTiterGlo); type: cell-based; conditions: Homo sapiens, Neural stem cell, 96 h; compound concentration at which 150% activity of control (100%) is reached; NSC proliferation by ATP (CellTiterGlo) after 4 days incubation; dose response 8 μM to 8 nM
Description: Neural Stem Cell Proliferation Assay
Neurogenic properties of small molecules are determined based on the proliferation of human embryonic stem cell derived neural stem cells (NSCs) which were derived via a dual smad inhibition as previously described (Chambers, S. M., et al., Highly efficient neural conversion of human ES and iPS cells by dual inhibition of SMAD signaling, Nature biotechnology, 2009. 27(3): p. 275-80.)
Compounds respond is measured by the increase in cells based on ATP levels (Promega:CellTiterGlo®) after an incubation period of 4 days.
NSCs are thawed and expanded over 3 passages. On the 14th day, NSCs are seeded in Polyornithin/Laminin coated 384 well plates at a cell density of 21,000 cells/cm^2 in a media volume of 38 μl.
4 hours after cell seeding, compound solutions are added at a volume of 2 μl. Stock solutions of the compounds (water, 5% DMSO) are diluted to obtain a dose response (11 points, dilution factor is 2), ranging from 8 μM to 8 nM. Controls are run to consistently determine the neurogenic properties of the cells: • Negative (neutral) control is cell culture Media (final DMSO concentration: 0.25%). • Positive controls are: • 1. cell culture Media+100 ng/ml FGF2 (final DMSO concentration: 0.1%) • 2. cell culture Media+20 ng/ml EGF (final DMSO concentration: 0.1%) • 3. cell culture Media+100 ng/ml Wnt3a (final DMSO concentration: 0.1%)
After 4 days incubation at 37° C., 5% CO2, the amount of ATP per well is quantified. The ATP concentration is proportional to the cell number. ATP is quantified by using the Promega CellTiterGlo® kit. The CellTiterGlo® reagents contain a cell lysis buffer, a thermo stable luciferase (UltraGlo™ recombinant luciferase), magnesium and luciferin. Luciferin reacts with ATP producing oxyluciferin, AMP and light. The luminescence signal is proportional to the ATP content.
The value of negative (neutral) control is determined for each assay plate by taking the average of 16 negative control wells. The neurogenic compound response is calculated for each compound as (compound/Negative Control)*100.
The values of EC150 from the dose response curve are determined for each test compound. The EC150 is the compound concentration at which 150% activity of control (100%) is reached.

Which EC (150% of control) [1] does the source give for Cc1c(C(N)=O)n(C)c2c(-c3ccc(Cl)cc3Cl)cc(Cl)cc12 [Example 30, 5-Chloro-7-(2,4-dichlorophenyl)-1,3-dimethylindole-2-carboxamide] here?
Its EC (150% of control) is 0.93 µM.

And the melting point?
The melting point was 221 °C.

Which results are given for Cc1c(C(N)=O)[nH]c2c(-c3ccc(Cl)c(F)c3)cc(Cl)cc12 [Example 31, 5-Chloro-7-(4-chloro-3-fluorophenyl)-3-methyl-1H-indole-2-carboxamide]?
EC (150% of control) [1]: 0.43 µM; melting point: 283 °C

For Cc1c(C(N)=O)n(C)c2c(-c3ccc(Cl)c(F)c3)cc(Cl)cc12 [Example 32, 5-Chloro-7-(4-chloro-3-fluorophenyl)-1,3-dimethylindole-2-carboxamide], which EC (150% of control) [1] is on record?
Its EC (150% of control) is 1.02 µM.

What about the melting point of the same compound?
Its melting point is 192 °C.

For N#Cc1cc(-c2ccc(F)cc2)c2[nH]c(C(N)=O)cc2c1 [Example 34, 5-Cyano-7-(4-fluorophenyl)-1H-indole-2-carboxamide], which EC (150% of control) [1] is on record?
The EC (150% of control) was 0.057 µM.

And the melting point?
The melting point was 234 °C.

With N#Cc1cc(-c2ccc(Cl)cc2)c2[nH]c(C(N)=O)cc2c1 [Example 35, 7-(4-Chlorophenyl)-5-cyano-1H-indole-2-carboxamide] as the compound, how does the EC (150% of control) [1] read?
Its EC (150% of control) is 0.021 µM.

And the melting point?
Its melting point is 267.5 °C.

With N#Cc1cc(-c2ccc(C(F)(F)F)cc2)c2[nH]c(C(N)=O)cc2c1 [Example 36, 5-Cyano-7-[4-(trifluoromethyl)phenyl]-1H-indole-2-carboxamide] as the compound, how does the EC (150% of control) [1] read?
The EC (150% of control) was 0.1 µM.

What about the melting point of the same compound?
Its melting point is 277.5 °C.

For Cn1c(C(N)=O)cc2cc(C#N)cc(-c3ccc(C(F)(F)F)cc3)c21 [Example 37, 5-Cyano-1-methyl-7-[4-(trifluoromethyl)-phenyl]-indole-2-carboxamide], which EC (150% of control) [1] is on record?
The EC (150% of control) was 2.62 µM.

And the melting point?
Its melting point is 171 °C.

For Cn1c(C(N)=O)cc2cc(C#N)cc(-c3ccc(F)cc3)c21 [Example 38, 5-Cyano-7-(4-fluorophenyl)-1-methylindole-2-carboxamide], which EC (150% of control) [1] is on record?
Its EC (150% of control) is 0.19 µM.

What about the melting point of the same compound?
Its melting point is 203.5 °C.

Which EC (150% of control) [1] does the source give for Cn1c(C(N)=O)cc2cc(C#N)cc(-c3ccc(Cl)cc3)c21 [Example 39, 7-(4-Chlorophenyl)-5-cyano-1-methylindole-2-carboxamide] here?
The EC (150% of control) was 0.18 µM.

And the melting point?
The melting point was 176 °C.

With Cn1c(C(N)=O)cc2cc(C#N)cc(-c3ccc(F)c(F)c3)c21 [Example 40, 5-Cyano-7-(3,4-difluorophenyl)-1-methylindole-2-carboxamide] as the compound, how does the EC (150% of control) [1] read?
The EC (150% of control) was 0.2 µM.

And the melting point?
The melting point was 184.5 °C.

Which EC (150% of control) [1] does the source give for N#Cc1cc(-c2ccc(F)cc2F)c2[nH]c(C(N)=O)cc2c1 [Example 41, 5-Cyano-7-(2,4-difluorophenyl)-1H-indole-2-carboxamide] here?
Its EC (150% of control) is 0.025 µM.

And the melting point?
The melting point was 289.5 °C.

For N#Cc1cc(-c2ccc(Cl)cc2Cl)c2[nH]c(C(N)=O)cc2c1 [Example 42, 5-Cyano-7-(2,4-dichlorophenyl)-1H-indole-2-carboxamide], which EC (150% of control) [1] is on record?
The EC (150% of control) was 0.047 µM.

What about the melting point of the same compound?
The melting point was 276.5 °C.

What does the source list for N#Cc1ccc(-c2cc(C#N)cc3cc(C(N)=O)[nH]c23)cc1 [Example 43, 5-Cyano-7-(4-cyanophenyl)-1H-indole-2-carboxamide]?
EC (150% of control) [1]: 0.2 µM; melting point: 299 °C

What does the source list for N#Cc1cc(-c2ccc(OC(F)(F)F)cc2)c2[nH]c(C(N)=O)cc2c1 [Example 44, 5-Cyano-7-[4-(trifluoromethoxy)-phenyl]-1H-indole-2-carboxamide]?
EC (150% of control) [1]: 0.17 µM; melting point: 247 °C

Which EC (150% of control) [1] does the source give for Cc1c(C(N)=O)[nH]c2c(-c3ccc(F)cc3)cc(F)cc12 [Example 45, 5-Fluoro-7-(4-fluorophenyl)-3-methyl-1H-indole-2-carboxamide] here?
Its EC (150% of control) is 0.068 µM.

And the melting point?
The melting point was 219 °C.

What does the source list for Cc1c(C(N)=O)[nH]c2c(-c3ccc(Cl)cc3)cc(F)cc12 [Example 46, 7-(4-Chlorophenyl)-5-fluoro-3-methyl-1H-indole-2-carboxamide]?
EC (150% of control) [1]: 0.066 µM; melting point: 230 °C

With Cc1c(C(N)=O)[nH]c2c(-c3ccc(F)c(F)c3)cc(F)cc12 [Example 47, 7-(3,4-Difluorophenyl)-5-fluoro-3-methyl-1H-indole-2-carboxamide] as the compound, how does the EC (150% of control) [1] read?
The EC (150% of control) was 0.052 µM.

And the melting point?
Its melting point is 208 °C.

For Cc1c(C(N)=O)[nH]c2c(-c3ccc(C(F)(F)F)cc3)cc(F)cc12 [Example 48, 5-Fluoro-3-methyl-7-[4-(trifluoromethyl)-phenyl]-1H-indole-2-carboxamide], which EC (150% of control) [1] is on record?
Its EC (150% of control) is 0.11 µM.

And the melting point?
Its melting point is 200 °C.

With Cc1c(C(N)=O)n(C)c2c(-c3ccc(F)cc3)cc(F)cc12 [Example 49, 5-Fluoro-7-(4-fluorophenyl)-1,3-dimethylindole-2-carboxamide] as the compound, how does the EC (150% of control) [1] read?
The EC (150% of control) was 0.17 µM.

And the melting point?
Its melting point is 202 °C.

Which EC (150% of control) [1] does the source give for Cc1c(C(N)=O)n(C)c2c(-c3ccc(Cl)cc3)cc(F)cc12 [Example 50, 7-(4-Chlorophenyl)-5-fluoro-1,3-dimethylindole-2-carboxamide] here?
The EC (150% of control) was 0.12 µM.

And the melting point?
The melting point was 210 °C.

What does the source list for Cc1c(C(N)=O)n(C)c2c(-c3ccc(C(F)(F)F)cc3)cc(F)cc12 [Example 51, 5-Fluoro-1,3-dimethyl-7-[4-(trifluoromethyl)-phenyl]-indole-2-carboxamide]?
EC (150% of control) [1]: 0.13 µM; melting point: 222 °C

For Cc1c(C(N)=O)n(C)c2c(-c3ccc(F)c(F)c3)cc(F)cc12 [Example 52, 7-(3,4-Difluorophenyl)-5-fluoro-1,3-dimethylindole-2-carboxamide], which EC (150% of control) [1] is on record?
The EC (150% of control) was 0.7 µM.

What about the melting point of the same compound?
The melting point was 186 °C.

For Cc1c(C(N)=O)[nH]c2c(-c3ccc(C#N)cc3)cc(F)cc12 [Example 53, 7-(4-Cyanophenyl)-5-fluoro-3-methyl-1H-indole-2-carboxamide], which EC (150% of control) [1] is on record?
Its EC (150% of control) is 0.04 µM.

And the melting point?
The melting point was 230 °C.

What does the source list for Cc1c(C(N)=O)[nH]c2c(-c3ccc(OC(F)(F)F)cc3)cc(F)cc12 [Example 54, 5-Fluoro-3-methyl-7-[4-(trifluoromethoxy)phenyl]-1H-indole-2-carboxamide]?
EC (150% of control) [1]: 0.2 µM; melting point: 108 °C

With Cc1c(C(N)=O)[nH]c2c(-c3ccc(F)cc3F)cc(F)cc12 [Example 55, 7-(2,4-Difluorophenyl)-5-fluoro-3-methyl-1H-indole-2-carboxamide] as the compound, how does the EC (150% of control) [1] read?
The EC (150% of control) was 0.026 µM.

And the melting point?
Its melting point is 200 °C.

With Cc1c(C(N)=O)[nH]c2c(-c3ccc(Cl)cc3Cl)cc(F)cc12 [Example 56, 7-(2,4-Dichlorophenyl)-5-fluoro-3-methyl-1H-indole-2-carboxamide] as the compound, how does the EC (150% of control) [1] read?
The EC (150% of control) was 0.027 µM.

What about the melting point of the same compound?
Its melting point is 198 °C.

For N#Cc1cc(-c2ccc(Cl)cc2F)c2[nH]c(C(N)=O)cc2c1 [Example 57, 7-(4-Chloro-2-fluorophenyl)-5-cyano-1H-indole-2-carboxamide], which EC (150% of control) [1] is on record?
The EC (150% of control) was 0.066 µM.

What about the melting point of the same compound?
The melting point was 286.5 °C.

What does the source list for Cn1c(C(N)=O)cc2cc(C#N)cc(-c3ccc(Cl)cc3F)c21 [Example 58, 7-(4-Chloro-2-fluorophenyl)-5-cyano-1-methylindole-2-carboxamide]?
EC (150% of control) [1]: 1.67 µM; melting point: 192 °C

With Cc1c(C(N)=O)n(C)c2c(-c3ccc(C#N)cc3)cc(F)cc12 [Example 59, 7-(4-Cyanophenyl)-5-fluoro-1,3-dimethylindole-2-carboxamide] as the compound, how does the EC (150% of control) [1] read?
The EC (150% of control) was 0.083 µM.

And the melting point?
Its melting point is 245 °C.

With Cc1c(C(N)=O)n(C)c2c(-c3ccc(OC(F)(F)F)cc3)cc(F)cc12 [Example 60, 5-Fluoro-1,3-dimethyl-7-[4-(trifluoromethoxy)phenyl]indole-2-carboxamide] as the compound, how does the EC (150% of control) [1] read?
Its EC (150% of control) is 0.22 µM.

And the melting point?
The melting point was 171 °C.
